The structures appear in SMILES notation. Calls of active or inactive are those of the source. No cut-off for these calls is given here.

For assay [1], the system named is K562. Nature of the assay: Cytotoxicity against human K562 cells after 48 hrs by trypan blue dye exclusion test. The assay is classed as functional, cell-based. The following applies: K562, 48 h.
Assay [2] deals with K562. Nature of the assay: Induction of apoptosis in human K562 cells by annexin V/propidium iodide staining-based flow cytometric analysis. The class given is functional, cell-based. In general terms: In flow cytometry, cells or beads pass a laser one at a time.
The test system of assay [3] is K562. Nature of the assay: Cell cycle arrest in human K562 cells assessed as accumulation at G1 phase after 24 hrs using propidium iodide staining at 10 uM by flow cytometry (reference value: 39.05%). The class given is functional.
Assay [4] relates to K562. Nature of the assay: Effect on pSTAT5 expression level in human K562 cells at 10 uM after 24 hrs by FACScan flow cytometry. The class given is functional, cell-based.
Assay [5] deals with K562. Nature of the assay: Cell cycle arrest in human K562 cells assessed as accumulation at G2-M phase after 24 hrs using propidium iodide staining at 10 uM by flow cytometry (reference value: 15.01%). The class given is functional.
For assay [6], the system named is K562. Nature of the assay: Cell cycle arrest in human K562 cells assessed as accumulation at S phase after 24 hrs using propidium iodide staining at 10 uM by flow cytometry (reference value: 45.94%). The class given is functional.
Assay [7] has as its system K562. Put plainly: Cell cycle arrest in human K562 cells assessed as accumulation at G2-M phase after 24 hrs using propidium iodide staining at 20 uM by flow cytometry (reference value: 15.01%). The assay is classed as functional.
In assay [8] the test system is K562. Nature of the assay: Cell cycle arrest in human K562 cells assessed as accumulation at S phase after 24 hrs using propidium iodide staining at 20 uM by flow cytometry (reference value: 45.94%). The class given is functional.
The subject of assay [9] is K562. Put plainly: Effect on pSTAT5 expression level in human K562 cells at 20 uM after 24 hrs by FACScan flow cytometry. The class given is functional, cell-based.
In assay [10] the test system is K562. Nature of the assay: Cell cycle arrest in human K562 cells assessed as accumulation at G1 phase after 24 hrs using propidium iodide staining at 20 uM by flow cytometry (reference value: 39.05%). The class given is functional.
The test system of assay [11] is K562. Nature of the assay: Cell cycle arrest in human K562 cells assessed as accumulation at G2-M phase after 24 hrs using propidium iodide staining at 40 uM by flow cytometry (reference value: 15.01%). The assay is classed as functional.
In assay [12] the test system is K562. Nature of the assay: Cell cycle arrest in human K562 cells assessed as accumulation at S phase after 24 hrs using propidium iodide staining at 40 uM by flow cytometry (reference value: 45.94%). The assay is classed as functional.
In assay [13] the test system is K562. Nature of the assay: Effect on pSTAT5 expression level in human K562 cells at 30 uM after 24 hrs by FACScan flow cytometry. The class given is functional, cell-based.
The subject of assay [14] is K562. Put plainly: Cell cycle arrest in human K562 cells assessed as accumulation at G1 phase after 24 hrs using propidium iodide staining at 40 uM by flow cytometry (reference value: 39.05%). The assay is classed as functional.
Assay [15] relates to K562. Nature of the assay: Ratio of Pimozide to compound for pSTAT5 expression level in human K562 cells. The assay is classed as functional.
The subject of assay [16] is K562. Nature of the assay: Cell cycle arrest in human K562 cells assessed as accumulation at G2-M phase after 24 hrs using propidium iodide staining at 5 uM by flow cytometry (reference value: 15.01%). The assay is classed as functional.
The subject of assay [17] is K562. Put plainly: Ratio of Pimozide AC50 to compound AC50 for human K562 cells by annexin V/propidium iodide staining-based flow cytometric analysis. The class given is functional.
The test system of assay [18] is K562. Put plainly: Cell cycle arrest in human K562 cells assessed as accumulation at G1 phase after 24 hrs using propidium iodide staining at 5 uM by flow cytometry (reference value: 39.05%). The class given is functional.
Assay [19] deals with K562. Put plainly: Ratio of Pimozide IC50 to compound IC50 for human K562 cells by trypan blue dye exclusion test. The assay is classed as functional.
The subject of assay [20] is K562. Nature of the assay: Induction of pSTAT5 expression level in human K562 cells at 15 uM after 24 hrs by FACScan flow cytometry. The assay is classed as functional, cell-based.
In assay [21] the test system is K562. Put plainly: Induction of pSTAT5 expression level in human K562 cells at 10 uM after 24 hrs by FACScan flow cytometry. The class given is functional, cell-based.
In assay [22] the test system is K562. Nature of the assay: Cell cycle arrest in human K562 cells assessed as accumulation at S phase after 24 hrs using propidium iodide staining at 5 uM by flow cytometry (reference value: 45.94%). The class given is functional.
The test system of assay [23] is K562. Nature of the assay: Reduction in pSTAT5 expression level in human K562 cells at 10 uM after 24 hrs by FACScan flow cytometry. The assay is classed as functional, cell-based.
Assay [24] has as its system K562. Nature of the assay: Cell cycle arrest in human K562 cells assessed as accumulation at G2-M phase after 24 hrs using propidium iodide staining at 30 uM by flow cytometry (reference value: 15.01%). The assay is classed as functional.
Assay [25] concerns K562. Put plainly: Cell cycle arrest in human K562 cells assessed as accumulation at G1 phase after 24 hrs using propidium iodide staining at 30 uM by flow cytometry (reference value: 39.05%). The assay is classed as functional.
Assay [26] concerns K562. Put plainly: Cell cycle arrest in human K562 cells assessed as accumulation at S phase after 24 hrs using propidium iodide staining at 30 uM by flow cytometry (reference value: 45.94%). The assay is classed as functional.
In assay [27] the test system is K562. Nature of the assay: Cell cycle arrest in human K562 cells assessed as accumulation at S phase after 24 hrs using propidium iodide staining at 7 uM by flow cytometry (reference value: 45.94%). The assay is classed as functional.
Assay [28] relates to K562. Nature of the assay: Cell cycle arrest in human K562 cells assessed as accumulation at G1 phase after 24 hrs using propidium iodide staining at 7 uM by flow cytometry (reference value: 39.05%). The assay is classed as functional.
Assay [29] has as its system K562. Nature of the assay: Cell cycle arrest in human K562 cells assessed as accumulation at G2-M phase after 24 hrs using propidium iodide staining at 7 uM by flow cytometry (reference value: 15.01%). The class given is functional.

Compound `O=C(CCC(c1ccc(F)cc1)c1ccc(F)cc1)N1CCC(n2c(=O)[nH]c3ccccc32)CC1` returned an IC50 with K562 [1] greater than 50 µM. The concentration at half-maximal activity (AC50) in the assay with K562 [2] is greater than 50 µM.

Regarding `O=C(Cc1ccccc1)N1CCC(n2c(=O)[nH]c3ccccc32)CC1`, in the assay on K562 [1], the IC50 is greater than 50 µM. Further, the concentration at half-maximal activity (AC50) in the assay on K562 [2] is greater than 50 µM.

`O=c1[nH]c2ccccc2n1C1CCNCC1` returned an IC50 with K562 [1] greater than 50 µM. In the assay on K562 [2], the AC50 was greater than 50 µM.

In the assay on K562 [1], `O=C(CCl)N1CCC(n2c(=O)[nH]c3ccccc32)CC1` gave an IC50 of 7.3 µM. The AC50 with K562 [2] was 14 µM. The Activity came to 33.67% with K562 [3], 6.1% with K562 [5] and 60.23% in the assay with K562 [6]. The result in the assay with K562 [4] was inactive.

Take `N#CCC(=O)N1CCC(n2c(=O)[nH]c3ccccc32)CC1`: the IC50 with K562 [1] is greater than 50 µM. The compound further displayed an AC50 with K562 [2] greater than 50 µM.

Take `O=C(CC=C(c1ccccc1)c1ccccc1)N1CCC(n2c(=O)[nH]c3ccccc32)CC1`: the Activity in the assay with K562 [7] came out at 7.33%; in the assay with K562 [8] it was 58.57%; in the assay with K562 [10], 34.1%. For the same compound, the midpoint of inhibition in the assay on K562 [1], the IC50, lay at 13 µM. Besides, the result in the assay on K562 [9] was inactive. Also, in the assay with K562 [2], the AC50 was 18 µM.

`CC(=O)N1CCC(n2c(=O)[nH]c3ccccc32)CC1` gave an IC50 with K562 [1] greater than 50 µM. The compound also showed an AC50 with K562 [2] greater than 50 µM.

For the compound `O=C(Cc1ccc([N+](=O)[O-])cc1)N1CCC(n2c(=O)[nH]c3ccccc32)CC1`, the Activity in the assay on K562 [11] came to 6.07%; in the assay on K562 [12], 62.21%; in the assay on K562 [14] it was 31.72%. In the assay with K562 [1], this compound displayed an IC50 of 35 µM. Moreover, the AC50 in the assay with K562 [2] is greater than 50 µM. For the same compound, the outcome in the assay on K562 [13] was inactive.

In the assay with K562 [1], `O=C(CI)N1CCC(n2c(=O)[nH]c3ccccc32)CC1` had an IC50 of 1.8 µM. Moreover, the “Ratio IC50” value in the assay with K562 [15] turned out to be 1.49; with K562 [17] it was 2; in the assay on K562 [19], 2.7. The Activity in the assay on K562 [16] came to 13.98%; in the assay with K562 [18], 46.96%; in the assay on K562 [22] it was 39.06%. In the assay with K562 [2], this compound showed an AC50 of 5 µM. For the same compound, the outcome with K562 [20] and in the assay with K562 [21] was Active.

In the assay on K562 [1], `CN1CCC(n2c(=O)[nH]c3ccccc32)CC1` came in with an IC50 greater than 50 µM. Further, the AC50 in the assay with K562 [2] is greater than 50 µM.

In turn, `O=c1[nH]c2ccccc2n1C1CCN(CCCC(c2ccc(F)cc2)c2ccc(F)cc2)CC1` [PIMOZIDE] returned an IC50 in the assay with K562 [1] of 5 µM. The same compound gave an AC50 in the assay on K562 [2] of 10 µM. Also, the Activity with K562 [3] was 51.28%; in the assay with K562 [5], 10.31%; in the assay with K562 [6] it was 38.41%; in the assay with K562 [23] it was “Dose-dependent effect”.

The compound `O=C(CC=C(c1ccc(F)cc1)c1ccc(F)cc1)N1CCC(n2c(=O)[nH]c3ccccc32)CC1` came in with an IC50 in the assay with K562 [1] of 18 µM. The results for the Activity in the assay with K562 [24], with K562 [25] and in the assay with K562 [26] were 6.16%, 47.2% and 46.64%, respectively. Moreover, the outcome with K562 [9] was inactive. In addition, in the assay on K562 [2], half-maximal activity (AC50) was put at 35 µM.

`COc1ccc(CC(=O)N2CCC(n3c(=O)[nH]c4ccccc43)CC2)cc1` registered an IC50 in the assay with K562 [1] greater than 50 µM. This compound also displayed an AC50 with K562 [2] greater than 50 µM.

`O=C(CBr)N1CCC(n2c(=O)[nH]c3ccccc32)CC1`: the Activity amounted to 43.23% in the assay with K562 [27], 47.55% in the assay with K562 [28] and 9.22% with K562 [29]. In the assay with K562 [1], this compound gave a half-inhibitory concentration (IC50) of 2.4 µM. Besides, the activity in the assay on K562 [2] was half-maximal at 4.8 µM (AC50). Also, the result in the assay with K562 [20] and with K562 [21] was Active.

Regarding `O=C(Cc1cc2ccccc2[nH]1)N1CCC(n2c(=O)[nH]c3ccccc32)CC1`, the IC50 in the assay on K562 [1] was greater than 50 µM. The compound also showed an AC50 with K562 [2] greater than 50 µM.

With `O=C(CCC(c1ccccc1)c1ccccc1)N1CCC(n2c(=O)[nH]c3ccccc32)CC1`, half-maximal inhibition in the assay on K562 [1] (IC50) required 14 µM. In addition, the Activity with K562 [24] came to 20.41%; in the assay with K562 [25], 48.02%; in the assay on K562 [26], 31.57%. Also, the outcome with K562 [9] was inactive. In the assay with K562 [2], the AC50 came to 19 µM.

Consider `C=CC(=O)N1CCC(n2c(=O)[nH]c3ccccc32)CC1`, for which, in the assay on K562 [1], the IC50 was greater than 50 µM. In addition, in the assay on K562 [2], the half-maximal activity concentration (AC50) was greater than 50 µM.

Usually IC50 stands for the concentration that gives 50% inhibition. By AC50 is commonly meant the concentration giving half of the maximal activity seen. Low values mean activity at low concentration, high ones activity only at high concentration.

For the origin of these results see ChEMBL document CHEMBL3352445, “Inhibition of activated STAT5 in Bcr/Abl expressing leukemia cells with new pimozide derivatives” (Bioorg Med Chem Lett, 2014).
